Tested on: SK-MEL-28 tumor cells
Test: Melanoma CDX model, SK-MEL-28 tumor growth
Assay type: in vivo, BALB/c nude mice
Conditions: 60 mg/kg subcutaneously twice a day for 5 days, then once a day for 9 days; not statistically significant
Experimental: For this model, BALB/c nude mice were inoculated subcutaneously (sc) with SK-MEL-28 tumor cells (5×10^6 in 0.1 mL PBS and Matigel, 1:1). […] Throughout the treatment period, tumor sizes were recorded. […] Vehicle control consisted of 5% DMSO and 95% of a 20% 2-hydroxypropyl-beta-cyclodextrin solution. Eight female mice were included in each group. t-test was done using GraphPad Software.

C#CCOc1cccc(Nc2ncnc3ccc(NC(=O)CCl)cc23)c1 [Compound 1]
Tumor size compared to control: reduce tumor size compared to control starting at day 8

From patent publication US12392778B2, “Method for proteome-wide discovery of covalent ligands and compositions thereof” (BridGene Biosciences, Inc., priority 2019, dated 2025)
